# From PubChem BioAssay AID330 (DTP/NCI, 2004)
# Several values for one entry are separate records, joined by “and”; a condition that tells them apart may be missing. Equal values may be shown once. Inconclusive results and toxic doses are left out.
# System: P388 leukemia ip, CD2F1 mice, survival T/C
# Test: NCI In Vivo Anticancer Drug Screen. Data for tumor model P388 Leukemia (intraperitoneal) in CD2F1 (CDF1) mice
# Settings: endpoint: median survival time, higher = longer survival
# How it was run: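 Mice carrying the transplanted tumor received test compound or vehicle. Survival was recorded in each group, and the value is the treated-group measurement divided by that of the vehicle-treated control group.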
# [1] = dose: 50.0 mg/kg/injection, schedule: Q01DX005 (ip), vehicle: saline with Tween-80
# [2] = dose: 100.0 mg/kg/injection, schedule: Q01DX005 (ip), vehicle: saline with Tween-80
# [3] = dose: 200.0 mg/kg/injection, schedule: Q01DX005 (ip), vehicle: saline with Tween-80
# [4] = dose: 60.0 mg/kg/injection, schedule: Q01DX005 (ip), vehicle: saline with Tween-80
# [5] = dose: 120.0 mg/kg/injection, schedule: Q01DX005 (ip), vehicle: saline with Tween-80
# [6] = dose: 240.0 mg/kg/injection, schedule: Q01DX005 (ip), vehicle: saline with Tween-80
# [7] = dose: 50.0 mg/kg/injection, schedule: Q01DX009 (ip), vehicle: saline with Tween-80
# [8] = dose: 100.0 mg/kg/injection, schedule: Q01DX009 (ip), vehicle: saline with Tween-80
# [9] = dose: 200.0 mg/kg/injection, schedule: Q01DX009 (ip), vehicle: saline with Tween-80
# [10] = dose: 100.0 mg/kg/injection, schedule: Q01DX001 (ip), vehicle: Klucel (hydroxypropylcellulose) (HPC)
# [11] = dose: 200.0 mg/kg/injection, schedule: Q01DX001 (ip), vehicle: Klucel (hydroxypropylcellulose) (HPC)
# [12] = dose: 400.0 mg/kg/injection, schedule: Q01DX001 (ip), vehicle: Klucel (hydroxypropylcellulose) (HPC)
smiles,measurement,setting,value
C=CCSCC1Nc2cc(Cl)c(S(N)(=O)=O)cc2S(=O)(=O)N1C (stereo unspecified),T/C,[1],100 % of control
same,T/C,[2],105 % of control
same,T/C,[3],101 % of control
CC(Cc1ccc(O)c(O)c1)C(C)Cc1ccc(O)c(O)c1 (stereo unspecified),T/C,"dose: 100.0 mg/kg/injection, schedule: Q01DX009 (ip), vehicle: saline",98 % of control and 106 % of control
same,T/C,"dose: 200.0 mg/kg/injection, schedule: Q01DX009 (ip), vehicle: saline",101 % of control and 102 % of control
same,T/C,"dose: 400.0 mg/kg/injection, schedule: Q01DX009 (ip), vehicle: saline",105 % of control and 94 % of control
same,T/C,"dose: 600.0 mg/kg/injection, schedule: Q01DX009 (ip), vehicle: saline",98 % of control and 90 % of control
Cc1[nH]c(C)c(Br)c(=O)c1F,T/C,"dose: 6.25 mg/kg/injection, schedule: Q01DX009 (ip), vehicle: Klucel (hydroxypropylcellulose) (HPC)",116 % of control
same,T/C,"dose: 12.5 mg/kg/injection, schedule: Q01DX009 (ip), vehicle: Klucel (hydroxypropylcellulose) (HPC)",110 % of control
same,T/C,"dose: 25.0 mg/kg/injection, schedule: Q01DX009 (ip), vehicle: Klucel (hydroxypropylcellulose) (HPC)",100 % of control
CC1(C)CCCC(C)(C(=O)O)O1 (stereo unspecified),T/C,[4],104 % of control
same,T/C,[5],101 % of control
same,T/C,[6],104 % of control
CCCc1c(C(=O)OCC)c(-c2ccccc2)c(CCC)c2c1-c1cccc3cccc-2c13,T/C,[7],99 % of control
same,T/C,[8],95 % of control
same,T/C,[9],92 % of control
O=C(NC(C(=O)O)c1ccc(CCl)cc1)c1ccccc1 (stereo unspecified),T/C,[1],107 % of control
same,T/C,[2],105 % of control
COc1cccc2c1C(=O)c1c(O)c3c(c(O)c1C2=O)C[C@@](O)(C(C)=O)C[C@@H]3OC1CC(N(CCO)Cc2ccccc2)C(O)C(C)O1 (stereo partly specified),T/C,"dose: 4.0 mg/kg/injection, schedule: Q04DX003 (ip), vehicle: water",105 % of control
same,T/C,"dose: 8.0 mg/kg/injection, schedule: Q04DX003 (ip), vehicle: water",113 % of control
same,T/C,"dose: 12.5 mg/kg/injection, schedule: Q04DX003 (ip), vehicle: water",114 % of control
same,T/C,"dose: 32.0 mg/kg/injection, schedule: Q04DX003 (ip), vehicle: water",155 % of control
same,T/C,"dose: 50.0 mg/kg/injection, schedule: Q04DX003 (ip), vehicle: water",172 % of control
same,T/C,"dose: 64.0 mg/kg/injection, schedule: Q04DX003 (ip), vehicle: water",179 % of control
same,T/C,"dose: 100.0 mg/kg/injection, schedule: Q04DX003 (ip), vehicle: water",223 % of control
same,T/C,"dose: 128.0 mg/kg/injection, schedule: Q04DX003 (ip), vehicle: water",240 % of control
same,T/C,"dose: 200.0 mg/kg/injection, schedule: Q04DX003 (ip), vehicle: water",124 % of control
COc1cc2c(N)nc(N3CCN(C(=O)OCC(C)(C)O)CC3)nc2c(OC)c1OC,T/C,"dose: 50.0 mg/kg/injection, schedule: Q01DX005 (ip), vehicle: suspension in saline",95 % of control
same,T/C,"dose: 100.0 mg/kg/injection, schedule: Q01DX005 (ip), vehicle: suspension in saline",100 % of control
same,T/C,"dose: 200.0 mg/kg/injection, schedule: Q01DX005 (ip), vehicle: suspension in saline",113 % of control
COC1OC2COC(c3ccccc3)OC2C2OC(c3ccccc3)OC12 (stereo unspecified),T/C,"dose: 1.56 mg/kg/injection, schedule: Q01DX009 (ip), vehicle: other",116 % of control
same,T/C,"dose: 3.13 mg/kg/injection, schedule: Q01DX009 (ip), vehicle: other",106 % of control
same,T/C,"dose: 6.25 mg/kg/injection, schedule: Q01DX009 (ip), vehicle: other",119 % of control
same,T/C,"dose: 12.5 mg/kg/injection, schedule: Q01DX009 (ip), vehicle: other",113 % of control
same,T/C,"dose: 25.0 mg/kg/injection, schedule: Q01DX009 (ip), vehicle: other",113 % of control and 87 % of control
same,T/C,"dose: 50.0 mg/kg/injection, schedule: Q01DX009 (ip), vehicle: other",91 % of control
same,T/C,"dose: 100.0 mg/kg/injection, schedule: Q01DX009 (ip), vehicle: other",91 % of control
same,T/C,"dose: 200.0 mg/kg/injection, schedule: Q01DX009 (ip), vehicle: other",89 % of control
same,T/C,"dose: 400.0 mg/kg/injection, schedule: Q01DX009 (ip), vehicle: other",92 % of control
C=C=C(C)C(c1ccccc1)N(C)C (stereo unspecified),T/C,"dose: 50.0 mg/kg/injection, schedule: Q01DX005 (ip), vehicle: saline",108 % of control
same,T/C,"dose: 100.0 mg/kg/injection, schedule: Q01DX005 (ip), vehicle: saline",109 % of control
Cc1nn(C(=S)S)c(C)c1N=Nc1ccc(F)cc1,T/C,[1],103 % of control
same,T/C,[2],110 % of control
same,T/C,[3],101 % of control
Oc1cccc([C@@]23CCCC[C@H]2CN(CC2CC2)CC3)c1,T/C,[1],90 % of control
same,T/C,[2],111 % of control
COCOc1cc(OCc2ccccc2)ccc1C(=O)/C=C/c1cc2c(cc1OCc1ccccc1)OCO2,T/C,[10],105 % of control
same,T/C,[11],102 % of control
same,T/C,[12],105 % of control
CC(C)OC(=O)Nc1ccc2nc(-c3cscn3)[nH]c2c1,T/C,[1],110 % of control
same,T/C,[2],114 % of control and 121 % of control
same,T/C,[3],151 % of control
same,T/C,"dose: 400.0 mg/kg/injection, schedule: Q01DX005 (ip), vehicle: saline with Tween-80",180 % of control
CC(=N\O)/C(=N\O)C(=O)c1ccccc1,T/C,[7],95 % of control
same,T/C,[8],90 % of control
same,T/C,[9],90 % of control
CC1(C)CC(=O)c2c(oc3cc4c5c(oc4cc23)CC(C)(C)CC5=O)C1,T/C,"dose: 12.5 mg/kg/injection, schedule: Q01DX005 (ip), vehicle: saline with Tween-80",90 % of control
same,T/C,"dose: 25.0 mg/kg/injection, schedule: Q01DX005 (ip), vehicle: saline with Tween-80",91 % of control
same,T/C,[2],87 % of control
same,T/C,[3],92 % of control
O=C(NCCCCNCCCNC(=O)c1ccc([N+](=O)[O-])cc1)c1ccc([N+](=O)[O-])cc1,T/C,[4],97 % of control
same,T/C,[5],92 % of control
same,T/C,[6],98 % of control
CC(C)CCC(=O)c1ccoc1,T/C,"dose: 0.46 mg/kg/injection, schedule: Q01DX005 (ip), vehicle: saline with Tween-80",103 % of control
same,T/C,"dose: 0.93 mg/kg/injection, schedule: Q01DX005 (ip), vehicle: saline with Tween-80",97 % of control
same,T/C,"dose: 1.87 mg/kg/injection, schedule: Q01DX005 (ip), vehicle: saline with Tween-80",97 % of control
same,T/C,"dose: 3.75 mg/kg/injection, schedule: Q01DX005 (ip), vehicle: saline with Tween-80",89 % of control
[Cl][Pd][Cl].[NH-]C(C(=O)OCc1ccccc1)c1ccccc1.[NH-]C(C(=O)OCc1ccccc1)c1ccccc1 (stereo unspecified),T/C,"dose: 6.25 mg/kg/injection, schedule: Q04DX003 (ip), vehicle: saline",100 % of control
same,T/C,"dose: 12.5 mg/kg/injection, schedule: Q04DX003 (ip), vehicle: saline",100 % of control
same,T/C,"dose: 25.0 mg/kg/injection, schedule: Q04DX003 (ip), vehicle: saline",97 % of control
same,T/C,"dose: 100.0 mg/kg/injection, schedule: Q04DX003 (ip), vehicle: saline",108 % of control
O=C(C1CC2CCN1CC2)N1CCN(C(=O)C2CC3CCN2CC3)CC1 (stereo unspecified),T/C,"dose: 1.56 mg/kg/injection, schedule: Q01DX005 (ip), vehicle: saline",98 % of control
same,T/C,"dose: 3.12 mg/kg/injection, schedule: Q01DX005 (ip), vehicle: saline",102 % of control and 96 % of control
same,T/C,"dose: 6.25 mg/kg/injection, schedule: Q01DX005 (ip), vehicle: saline",97 % of control
same,T/C,[4],101 % of control
same,T/C,[5],101 % of control
COc1cc(O)c2c(=O)c3c(O)c(O)ccc3oc2c1,T/C,"dose: 0.63 mg/kg/injection, schedule: Q01DX009 (ip), vehicle: saline",108 % of control
same,T/C,"dose: 1.25 mg/kg/injection, schedule: Q01DX009 (ip), vehicle: saline",110 % of control
same,T/C,"dose: 2.5 mg/kg/injection, schedule: Q01DX009 (ip), vehicle: saline",101 % of control
same,T/C,"dose: 5.0 mg/kg/injection, schedule: Q01DX009 (ip), vehicle: saline",100 % of control
COc1ccc(C2OC(=N)C(=S)N2C)c(OC)c1 (stereo unspecified),T/C,"dose: 60.0 mg/kg/injection, schedule: Q01DX005 (ip), vehicle: Klucel (hydroxypropylcellulose) (HPC)",102 % of control
same,T/C,"dose: 120.0 mg/kg/injection, schedule: Q01DX005 (ip), vehicle: Klucel (hydroxypropylcellulose) (HPC)",104 % of control
same,T/C,"dose: 240.0 mg/kg/injection, schedule: Q01DX005 (ip), vehicle: Klucel (hydroxypropylcellulose) (HPC)",101 % of control
CCn1c(Cl)c(/C=N/Nc2ccccc2[N+](=O)[O-])c2cccc(/C=N\Nc3ccccc3[N+](=O)[O-])c21,T/C,[10],91 % of control
same,T/C,[11],90 % of control
same,T/C,[12],87 % of control
